The results in this text go back to the PolyMetriX glass transition set.

In the case of `*C(=O)Nc1cc(NC(=O)c2ccc3[nH]c(-c4cccc(-c5nc6cc(*)ccc6[nH]5)c4)nc3c2)cc(-c2nc3ccccc3[nH]2)c1` (repeat unit), the glass transition temperature was found to be 315.00 °C. In the case of `*C(=O)Nc1cc(NC(=O)c2ccc3c(c2)C(=O)N(c2cc(-c4nnc(-c5ccccn5)o4)cc(N4C(=O)c5ccc(*)cc5C4=O)c2)C3=O)cc(-c2nnc(-c3ccccn3)o2)c1` (repeat unit) it was 164.00 °C; in that of `*C(=O)Nc1ccc(-c2cc(-c3ccccc3)cc(-c3ccc(NC(=O)c4ccc5c(c4)C(=O)N(c4cccc(P(=O)(c6ccccc6)c6cccc(N7C(=O)c8ccc(*)cc8C7=O)c6)c4)C5=O)cc3)n2)cc1` (repeat unit), 258.00 °C; in that of `*C(=O)Nc1ccc(-c2ccc(NC(=O)c3ccc4c(c3)C(=O)N(c3ccc(S(=O)(=O)c5ccc(N6C(=O)c7ccc(*)cc7C6=O)cc5)cc3)C4=O)cc2)cc1` (repeat unit), 370.00 °C. In turn, `*C(=O)Nc1ccc(-c2sc(-c3ccc(NC(=O)c4ccc5c(c4)C(=O)N(c4ccc(-c6sc(-c7ccc(N8C(=O)c9ccc(*)cc9C8=O)cc7)c(-c7ccccc7)c6-c6ccccc6)cc4)C5=O)cc3)c(-c3ccccc3)c2-c2ccccc2)cc1` (repeat unit) returned a glass transition temperature of 338.00 °C.

`*C(=O)Nc1ccc(C(c2ccc(NC(=O)c3ccc4c(c3)C(=O)N(c3cccc5c(N6C(=O)c7ccc(*)cc7C6=O)cccc35)C4=O)cc2)(C(F)(F)F)C(F)(F)F)cc1` (repeat unit) returned a glass transition temperature of 250.00 °C. In the case of `*C(=O)Nc1ccc(C2(c3ccc(NC(=O)c4ccc5c(c4)C(=O)N(c4ccc(Oc6cccc(Oc7ccc(N8C(=O)c9ccc(*)cc9C8=O)cc7)c6)cc4)C5=O)cc3)c3ccccc3-c3ccccc32)cc1` (repeat unit) it was 278.00 °C; in that of `*C(=O)OCCCCCCCCCCOC(=O)c1ccc(NC(=O)c2ccc(N3C(=O)c4ccc(*)cc4C3=O)cc2)cc1` (repeat unit), 102.00 °C. Then `*C(=O)OCCCCCCCCOC(=O)c1ccc(NC(=O)c2ccc(N3C(=O)c4ccc(*)cc4C3=O)cc2)cc1` (repeat unit), with 105.00 °C; and `*C(=O)OCCCCCOC(=O)c1ccc(NC(=O)c2ccc(N3C(=O)c4ccc(*)cc4C3=O)cc2)cc1` (repeat unit), with 129.00 °C; and `*C(=O)c1ccc2c(c1)C(=O)N(c1ccc(C(=O)Nc3ccc(Oc4ccc(NC(=O)c5ccc(NC(=O)Nc6ccc(Cc7ccc(NC(=O)Nc8ccc(C(=O)Nc9ccc(Oc%10ccc(NC(=O)c%11ccc(N%12C(=O)c%13ccc(*)cc%13C%12=O)cc%11)cc%10)cc9)cc8)cc7)cc6)cc5)cc4)cc3)cc1)C2=O` (repeat unit), with 229.00 °C. `*CCCCCCCCCCOc1ccc(-c2cc(-c3ccccc3)c(-c3ccc(NC(=O)c4ccc(C(=O)Nc5ccc(-c6c(-c7ccccc7)cc(-c7ccc(O*)cc7)cc6-c6ccccc6)cc5)cc4)cc3)c(-c3ccccc3)c2)cc1` (repeat unit) returned a glass transition temperature of 116.00 °C. Then `*CCOC(=O)Nc1ccc(CCCCc2ccc(NC(=O)O*)cc2)cc1` (repeat unit), with 105.70 °C; and `*CCOC(=O)Nc1ccc(CCc2ccc(NC(=O)O*)cc2)cc1` (repeat unit), with 116.90 °C; and `*NC(=O)Nc1ccc(Cc2ccc(NC(=O)Nc3cccc(*)n3)cc2)cc1` (repeat unit), with 206.50 °C.

Turning to `*Nc1cc(NC(=O)Nc2ccc(Cc3ccc(NC(*)=O)cc3)cc2)cc(C(=O)Nc2ccc3c(c2)C(=O)c2ccccc2C3=O)c1` (repeat unit), the glass transition temperature worked out at 168.00 °C. In the case of `*Nc1cc(NC(=O)Nc2ccc(Cc3ccc(NC(*)=O)cc3)cc2)cc(C(=O)Nc2cccc3c2C(=O)c2ccccc2C3=O)c1` (repeat unit) it was 178.00 °C. In the case of `*Nc1cc(NC(=O)c2ccccc2C(*)=O)cc(-c2nnc(-c3ccccn3)o2)c1` (repeat unit) it was 90.00 °C; in that of `*Nc1ccc(-c2ccc(NC(=O)c3ccc(C(*)=O)cc3)cc2)cc1` (repeat unit), 340.00 °C; in that of `*Nc1ccc(-c2ccc(NC(=O)c3cccc(C(*)=O)c3)c(O)c2)cc1O` (repeat unit), 386.00 °C. Then `*Nc1ccc(-c2ccc(NC(=O)c3cccc(C(*)=O)c3)cc2)cc1` (repeat unit), with 294.00 °C; and `*Nc1ccc(-c2ccc(Nc3ccc4c(c3)c3cc(*)ccc3n4CC(CC)CCCC)cc2)cc1` (repeat unit), with 231.00 °C. With `*Nc1ccc(/C=C/c2ccc(NC(=C(C#N)C#N)c3ccc(C(*)=C(C#N)C#N)cc3)cc2)cc1` (repeat unit), the glass transition temperature was 250.00 °C.

`*Nc1ccc(Br)cc1-c1ccc(NC(=O)c2ccc(C(*)=O)cc2)cc1` (repeat unit) returned a glass transition temperature of 285.00 °C.

Turning to `*Nc1ccc(Br)cc1-c1ccc(NC(=O)c2cccc(C(*)=O)c2)cc1` (repeat unit), the glass transition temperature was 253.00 °C. Then `*Nc1ccc(C(=O)c2ccc(C(=O)c3ccc(Nc4ccc5c(c4)c4cc(*)ccc4n5CC(CC)CCCC)cc3)cc2)cc1` (repeat unit), with 213.00 °C; and `*Nc1ccc(C(=O)c2ccc(Nc3ccc4c(c3)c3cc(*)ccc3n4CC(CC)CCCC)cc2)cc1` (repeat unit), with 236.1 °C; and `*Nc1ccc(C(c2ccc(NC(=O)c3ccc(C(*)=O)cc3)cc2)(P2(=O)Oc3ccccc3-c3ccccc32)P2(=O)Oc3ccccc3-c3ccccc32)cc1` (repeat unit), with 245.00 °C. In the case of `*Nc1ccc(C(c2ccc(NC(=O)c3ccc4cc(C(*)=O)ccc4c3)cc2)(P2(=O)Oc3ccccc3-c3ccccc32)P2(=O)Oc3ccccc3-c3ccccc32)cc1` (repeat unit) it was 241.00 °C; in that of `*Nc1ccc(C(c2ccc(NC(=O)c3cccc(C(*)=O)c3)cc2)(P2(=O)Oc3ccccc3-c3ccccc32)P2(=O)Oc3ccccc3-c3ccccc32)cc1` (repeat unit), 230.00 °C; in that of `*Nc1ccc(C2(c3ccc(NC(=O)c4cc(NC(=O)C56CC7CC(CC(C7)C5)C6)cc(C(*)=O)c4)cc3)c3ccccc3-c3ccccc32)cc1` (repeat unit), 370.00 °C. Turning to `*Nc1ccc(C2(c3ccc(NC(=O)c4ccc(C(*)=O)cc4)cc3)c3ccccc3-c3ccccc32)cc1` (repeat unit), the glass transition temperature was 319.00 °C. In the case of `*Nc1cccc(CCc2ccc(NC(=O)c3cccc(C(*)=O)c3)cc2)c1` (repeat unit) it was 203.00 °C; in that of `*Nc1ccccc1CCc1ccccc1NC(=O)Nc1ccc(CCc2ccc(NC(*)=O)cc2)cc1` (repeat unit), 235.00 °C; in that of `*Oc1ccc(C(=O)Nc2ccc(C(c3ccc(NC(=O)c4ccc(OC(=O)c5cccc(C(*)=O)c5)cc4)cc3)(C(F)(F)F)C(F)(F)F)cc2)cc1` (repeat unit), 227.00 °C. In the case of `*Oc1ccc(C(c2ccc(Oc3ccc(C(=O)Nc4ccc(-c5ccc(NC(=O)c6ccc(*)cc6)cc5C(F)(F)F)c(C(F)(F)F)c4)cc3)cc2)(C(F)(F)F)C(F)(F)F)cc1` (repeat unit) it was 240.00 °C. Then `*Oc1ccc(Oc2ccc(C(=O)c3ccc(NC(=O)c4ccc(C(=O)Nc5ccc(C(=O)c6ccc(*)cc6)cc5)cc4)cc3)cc2)cc1` (repeat unit), with 224.00 °C. For `*Oc1cccc(C(=O)Nc2ccc(-c3ccc(NC(=O)c4cccc(Oc5nc(*)nc(Sc6ccccc6)n5)c4)cc3)cc2)c1` (repeat unit), the glass transition temperature came to 279.00 °C. `*c1ccc(-c2cc(-c3ccc(-c4ccccc4)cc3)cc(-c3ccc(N4C(=O)c5ccc(NC(=O)Nc6ccc(-c7cc(-c8ccc(-c9ccccc9)cc8)cc(-c8ccc(NC(=O)Nc9ccc%10c(c9)C(=O)N(*)C%10=O)cc8)n7)cc6)cc5C4=O)cc3)n2)cc1` (repeat unit) yielded a glass transition temperature of 272.00 °C. Compound `*c1ccc(C(=O)Nc2ccc(-c3ccccc3NC(=O)c3ccc(S(*)(=O)=O)cc3)cc2)cc1` (repeat unit) showed a glass transition temperature of 284.00 °C.

In the case of `*c1ccc(C(=O)Nc2ccc(-c3nnc(*)o3)cc2)c(Oc2ccccc2)c1` (repeat unit), the glass transition temperature was determined as 235.00 °C. In the case of `*c1ccc(C(=O)c2ccc(-n3nc(-c4ccc(Sc5ccc(-c6nn(*)c(=O)c7ccccc67)cc5)cc4)c4ccccc4c3=O)cc2)cc1` (repeat unit) it was 281.00 °C. Then `*c1ccc(C(=O)c2ccc(Oc3ccc(-c4nn(*)c(=O)c5ccccc45)cc3)cc2)cc1` (repeat unit), with 263.00 °C; and `*c1ccc(NC(=O)c2cc(C(=O)Nc3ccc(-c4nnc(*)o4)cc3)cc(N3C(=O)c4ccccc4C3=O)c2)cc1` (repeat unit), with 327.00 °C.

`*c1ccc(NC(=O)c2ccc(OCCOCCOCCOCCOCCOc3ccc(C(=O)Nc4ccc5[nH]c(*)nc5c4)cc3)cc2)cc1` (repeat unit) yielded a glass transition temperature of 125.00 °C. In the case of `*c1ccc(NC(=O)c2ccc(OCCOCCOc3ccc(C(=O)Nc4ccc5[nH]c(*)nc5c4)cc3)cc2)cc1` (repeat unit) it was 175.00 °C.

`*c1ccc(NC(=O)c2ccc(OCCOc3ccc(C(=O)Nc4ccc5[nH]c(*)nc5c4)cc3)cc2)cc1` (repeat unit): the glass transition temperature was 225.00 °C. Then `*c1ccc(NC(=O)c2cccc(C(=O)Nc3ccc(-n4c(=O)c5cc6c(=O)n(*)c(=O)c6cc5c4=O)cc3)c2)cc1` (repeat unit), with 296.00 °C. Then `*c1ccc(NC2CC(=O)N(c3ccc(-c4sc(-c5ccc(N6C(=O)CC(Nc7ccc(-c8nc(-c9ccc(/C=C/c%10ccc([N+](=O)[O-])cc%10)s9)[nH]c8*)cc7)C6=O)cc5)c(-c5ccccc5)c4-c4ccccc4)cc3)C2=O)cc1` (repeat unit), with 304.00 °C; and `*c1ccc(NC2CC(=O)N(c3ccc(Cc4ccc(N5C(=O)CC(Nc6ccc(-c7nc(-c8ccc(/C=C/c9ccc([N+](=O)[O-])cc9)cc8)[nH]c7*)cc6)C5=O)cc4)cc3)C2=O)cc1` (repeat unit), with 250.00 °C.
